The values below come from patent US20240277796A1, “METHODS FOR INHIBITING RAS” (Revolution Medicines, Inc., priority 2021, published 2024).

One test has as its target K-Ras G13C (Homo sapiens, UniProt P01116, G13C). The experiment in a line: Raf-Ras (FRET or MOA) binding assay: disruption of BRAF RBD interaction with K-Ras G13C. Conditions: with Cyclophilin A, TR-FRET; read-out: IC50 in the Raf-Ras (FRET or MOA) binding assay re: K-Ras G13C. An excerpt:
Disruption of B-Raf Ras-Binding Domain (BRAF^RBD) Interaction with K-Ras by Compounds of the Invention (Also Called a FRET Assay or an MOA Assay)
Note—The following protocol describes a procedure for monitoring disruption of K-Ras G12C (GMP-PNP) binding to BRAF^RBD by a compound of the invention. This protocol may also be executed substituting other Ras proteins or nucleotides.
The purpose of this biochemical assay was to measure the ability of test compounds to facilitate ternary complex formation between a nucleotide-loaded K-Ras isoform and Cyclophilin A; the resulting ternary complex disrupts binding to a BRAF^RBD construct, inhibiting K-Ras signaling through a RAF effector. Data was reported as IC50 values.
In assay buffer containing 25 mM HEPES pH 7.3, 0.002% Tween20, 0.1% BSA, 100 mM NaCl and 5 mM MgCl2, tagless Cyclophilin A, His 6-K-Ras-GMPPNP, and GST-BRAF^RBD were combined in a 384-well assay plate at final concentrations of 25 μM, 12.5 nM and 50 nM, respectively. Compound was present in plate wells as a 10-point 3-fold dilution series starting at a final concentration of 30 μM. […] TR-FRET signal was read on a microplate reader (Ex 320 nm, Em 665/615 nm). […]
On the technique in general: TR-FRET usually uses a lanthanide donor and a delayed reading to cut background.

For test [1], the system named is SW1573. Conditions: Canon et al., Nature 575:217-223 (2019); cited from earlier work.
Test [2] deals with SW1573. To be noted: Canon et al., Nature 575:217-223 (2019); cited from earlier work. The source holds these as a separate data set.
The next test relates to AsPC-1 (K-Ras G12D). Briefly: pERK potency assay, AsPC-1. Format: cell-based. Conditions: Homo sapiens, ASPC1, read-out: IC50 in the pERK potency assay with respect to AsPC-1 (K-Ras G12D). An excerpt: The purpose of this assay was to measure the ability of test compounds to inhibit K-Ras in cells. Activated K-Ras induces increased phosphorylation of ERK at Threonine 202 and Tyrosine 204 (pERK). This procedure measures a decrease in cellular pERK in response to test compounds. The procedure described below in NCI-H358 cells is applicable to K-Ras G12C.
Note: This protocol may be executed substituting other cell lines to characterize inhibitors of other RAS variants, including, for example, AsPC-1 (K-Ras G12D), Capan-1 (K-Ras G12V), or NCI-H1355 (K-Ras G13C).
NCI-H358 cells were grown and maintained using media and procedures recommended by the ATCC. On the day prior to compound addition, cells were plated in 384-well cell culture plates (40 μl/well) and grown overnight in a 37° C., 5% CO2 incubator. Test compounds were prepared in 10, 3-fold dilutions in DMSO, with a high concentration of 10 mM. […]
In some experiments, cellular pERK level was determined using the AlphaLISA SureFire Ultra p-ERK1/2 Assay Kit (PerkinElmer). […] Signal was read on an Envision plate reader (PerkinElmer) using standard AlphaLISA settings. […] Signal was plotted vs. the decadal logarithm of compound concentration, and IC50 was determined by fitting a 4-parameter sigmoidal concentration response model.

Structures are written as SMILES. A value given as a limit tells only on which side of the number the result lay.

Sequence of K-Ras G13C (P01116 1-188 isoform P01116-2 G13C): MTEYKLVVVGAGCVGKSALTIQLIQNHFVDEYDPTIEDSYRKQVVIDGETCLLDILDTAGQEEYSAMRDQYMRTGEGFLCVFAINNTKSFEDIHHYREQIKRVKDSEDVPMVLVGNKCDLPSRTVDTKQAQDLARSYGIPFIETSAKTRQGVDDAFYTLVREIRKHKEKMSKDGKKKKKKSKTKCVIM
Sequence of K-Ras G13C (P62937 whole entry partner, the tested form may be a part): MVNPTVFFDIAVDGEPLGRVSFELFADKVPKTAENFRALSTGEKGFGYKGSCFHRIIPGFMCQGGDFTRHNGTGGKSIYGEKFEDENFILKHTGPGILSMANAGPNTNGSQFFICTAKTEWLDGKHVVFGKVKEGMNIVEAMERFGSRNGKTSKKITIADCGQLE

On to `CCn1c(-c2cccnc2[C@H](C)OC)c2c3cc(ccc31)-c1cccc(c1)C[C@H](NC(=O)[C@@H](COC1CN(C(=O)C#CC(C)(C)N(C)C)C1)N(C)C)C(=O)N1CCC[C@H](N1)C(=O)OCC(C)(C)C2` (atropisomer, axis not shown) [EA169], for which, at K-Ras G13C, the concentration for half-maximal inhibition (IC50) – broadly, the concentration that gives 50% inhibition – was above 1.5 µM.

`C=CC(=O)N1CCN(c2nc(=O)n(-c3c(C)ccnc3C(C)C)c3nc(-c4c(O)cccc4F)c(F)cc23)[C@@H](C)C1` [AMG510]: the “sensitivity of cell line SW1573 to the inhibitor” value in the test on SW1573 [1] is listed as “insensitive”. Further, the “sensitivity of cell line to RAS inhibitor” value with SW1573 [2] was “insensitive”.

Turning to `CCn1c(-c2cccnc2[C@H](C)OC)c2c3cc(ccc31)-c1cc(cc(C(F)F)c1)C[C@H](NC(=O)[C@H](C(C)C)N1CC[C@]3(CCN(C(=O)[C@@H]4N[C@@H]4C4CC4)C3)C1)C(=O)N1CCC[C@H](N1)C(=O)OCC(C)(C)C2` [FA17], the 50% inhibitory concentration (IC50) with AsPC-1 (K-Ras G12D) was above 8 µM.

Consider `CCn1c(-c2cccnc2[C@H](C)OC)c2c3cc(ccc31)N1CCS[C@@H](C[C@H](NC(=O)[C@@H](COC3CN(C(=O)C#CC(C)(C)N(C)C)C3)C(C)C)C(=O)N3CCC[C@H](N3)C(=O)OCC(C)(C)C2)C1` (atropisomer, axis not shown) [EA171], for which, at K-Ras G13C, the IC50 is above 1.5 µM.

For the molecule `CCn1c(-c2cccnc2[C@H](C)OC)c2c3cc(ccc31)-c1csc(n1)C[C@H](NC(=O)[C@H](C1CCCC1)N1CC[C@]3(CCN(C(=O)[C@@]4(C)CN4)C3)C1)C(=O)N1CCC[C@H](N1)C(=O)OCC(C)(C)C2` [FA5], in the test with AsPC-1 (K-Ras G12D), the IC50 was above 8 µM.
